This note sets out measurements from paper doi:10.1101/2024.08.29.610163v8, “Structural Snapshots of B12-Dependent Methionine Synthase’s Catalytic Conformations” (biorxiv, 2026).

One test deals with T1, tMS^ΔN35Hcy (tMS^Hcy) (Thermus thermophilus, UniProt Q5SKM5).
T1 construct: gene TTHA0618; isolated Hcy domain lacking N-terminal 35 residues; N-terminal His6-TEV tag, no cut described; E. coli BL21star(DE3)
T1 sequence (Q5SKM5 36-340 limits assumed): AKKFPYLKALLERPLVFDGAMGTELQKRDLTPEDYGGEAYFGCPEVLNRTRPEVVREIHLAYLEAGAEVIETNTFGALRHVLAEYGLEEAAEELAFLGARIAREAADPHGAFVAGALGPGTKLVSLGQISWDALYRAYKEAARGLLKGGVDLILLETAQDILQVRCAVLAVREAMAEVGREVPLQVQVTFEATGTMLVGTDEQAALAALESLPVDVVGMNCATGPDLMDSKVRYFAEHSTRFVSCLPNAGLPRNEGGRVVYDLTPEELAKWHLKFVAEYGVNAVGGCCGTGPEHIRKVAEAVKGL
Description: UV-Vis methylcobalamin consumption. The class given is biochemical. As to conditions: 100 µM homocysteine; 20 µM free MeCbl; 2 µM enzyme; pH 7.4, 0.5 mM TCEP, 50 °C.

Another test deals with T2, tMS^HcyFol (Thermus thermophilus, UniProt Q5SKM5).
T2 construct: gene TTHA0618; Hcy-Fol didomain; N-terminal His6-TEV tag, no cut described; E. coli BL21star(DE3)
T2 sequence (Q5SKM5 1-640 limits assumed): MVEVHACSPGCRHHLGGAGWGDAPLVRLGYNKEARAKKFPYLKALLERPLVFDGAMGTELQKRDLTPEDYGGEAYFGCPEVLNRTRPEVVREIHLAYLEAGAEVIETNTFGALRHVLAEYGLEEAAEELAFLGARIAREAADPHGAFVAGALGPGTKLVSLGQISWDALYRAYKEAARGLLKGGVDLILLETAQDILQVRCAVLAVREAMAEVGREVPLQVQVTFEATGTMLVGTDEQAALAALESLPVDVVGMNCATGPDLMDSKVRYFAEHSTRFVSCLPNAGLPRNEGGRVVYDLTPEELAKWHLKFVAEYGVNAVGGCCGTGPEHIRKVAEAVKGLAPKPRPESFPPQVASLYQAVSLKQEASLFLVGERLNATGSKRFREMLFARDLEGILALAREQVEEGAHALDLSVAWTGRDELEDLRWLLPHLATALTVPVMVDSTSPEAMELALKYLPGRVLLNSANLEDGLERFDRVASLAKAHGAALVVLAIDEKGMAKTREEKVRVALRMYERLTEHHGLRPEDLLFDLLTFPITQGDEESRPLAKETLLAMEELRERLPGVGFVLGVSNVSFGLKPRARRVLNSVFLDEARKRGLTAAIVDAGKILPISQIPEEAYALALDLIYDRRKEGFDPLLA
Description: UV-Vis methylcobalamin consumption. The class given is biochemical. As to conditions: 100 µM homocysteine; 23 µM CapCob-bound MeCbl or 20 µM free MeCbl; 2 µM enzyme; pH 7.4, 0.5 mM TCEP, 50 °C.

Test [1] has as its target T3, tMS^HcyFolCapCob (Thermus thermophilus, UniProt Q5SKM5, F110A/E123A/E124A/Y296A/D651A/P652A/G653A).
T3 construct: gene TTHA0618; Hcy-Fol-Cap-Cob tetradomain, lacks Act domain; N-terminal His6 tag cut with TEV; about 95 kDa monomer; E. coli BL21star(DE3)
T3 sequence (Q5SKM5 1-877 F110A/E123A/E124A/Y296A/D651A/P652A/G653A): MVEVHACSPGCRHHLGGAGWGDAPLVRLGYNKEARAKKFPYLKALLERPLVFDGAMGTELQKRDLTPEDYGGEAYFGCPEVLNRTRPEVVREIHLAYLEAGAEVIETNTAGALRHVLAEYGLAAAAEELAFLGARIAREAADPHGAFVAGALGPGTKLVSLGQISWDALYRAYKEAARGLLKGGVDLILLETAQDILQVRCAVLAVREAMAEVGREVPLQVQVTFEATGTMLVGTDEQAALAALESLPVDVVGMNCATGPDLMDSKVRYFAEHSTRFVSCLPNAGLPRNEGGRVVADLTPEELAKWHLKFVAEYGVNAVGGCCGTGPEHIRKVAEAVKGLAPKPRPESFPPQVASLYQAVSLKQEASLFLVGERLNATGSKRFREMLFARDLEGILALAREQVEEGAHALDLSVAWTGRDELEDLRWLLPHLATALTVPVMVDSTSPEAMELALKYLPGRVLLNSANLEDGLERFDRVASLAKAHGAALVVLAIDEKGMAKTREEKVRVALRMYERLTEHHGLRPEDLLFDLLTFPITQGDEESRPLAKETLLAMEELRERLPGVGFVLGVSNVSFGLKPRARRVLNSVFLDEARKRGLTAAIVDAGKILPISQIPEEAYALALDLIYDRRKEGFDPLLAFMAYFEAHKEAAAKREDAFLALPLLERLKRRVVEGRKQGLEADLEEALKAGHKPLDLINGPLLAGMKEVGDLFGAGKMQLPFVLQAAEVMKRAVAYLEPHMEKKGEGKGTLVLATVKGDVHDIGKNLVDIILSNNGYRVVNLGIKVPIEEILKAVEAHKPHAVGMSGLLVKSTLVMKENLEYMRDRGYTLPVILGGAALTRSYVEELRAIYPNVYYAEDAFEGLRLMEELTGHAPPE
Description: X-ray crystal structure, […] Å. In kind it is binding. Particulars: pre-Hcy-on, prCbl holoenzyme, mutant 1.

Test [2] addresses T4, tMS^HcyFolCapCob (Thermus thermophilus, UniProt Q5SKM5, F110A/E123A/E124A/R268A/D651A/P652A/G653A/D759A/N774H/R826A).
T4 construct: gene TTHA0618; Hcy-Fol-Cap-Cob tetradomain, lacks Act domain; N-terminal His6 tag cut with TEV; about 95 kDa monomer; E. coli BL21star(DE3)
T4 sequence (Q5SKM5 1-877 F110A/E123A/E124A/R268A/D651A/P652A/G653A/D759A/N774H/R826A): T3 sequence (Q5SKM5 1-877 F110A/E123A/E124A/Y296A/D651A/P652A/G653A) with R268A, A296Y, D759A, N774H, R826A
Description: X-ray crystal structure, […] Å. As to conditions: Hcy-on; aeCbl holoenzyme; co-purified; Fol domain; mutant 2. The class given is binding.

Changes are numbered by the printed parent chain.

For the molecule `N[C@@H](CCS)C(=O)O` [homocysteine], the UV-Vis methylcobalamin consumption result at tMS^ΔN35Hcy (tMS^Hcy) was “Consumption of exogenous methylcobalamin was detected in the presence of both tMS ^HcyFol and tMS^Hcy”; at tMS^HcyFol it was “consumption of methylcobalamin when bound to tMS^CapCob was observed with tMS^HcyFol”. Also, the “X-ray crystal structure, 2.45 Å” value on tMS^HcyFolCapCob [1] (Hcy domain site) is “HCY was found bound in the pre-Hcy-on structure (9CBP)”.
For `Nc1nc2c(c(=O)[nH]1)N[C@@H](CNc1ccc(C(=O)N[C@@H](CCC(=O)O)C(=O)O)cc1)CN2` [tetrahydrofolate], the “X-ray crystal structure, 2.38 Å” value at tMS^HcyFolCapCob [2] was “pre-Hcy-on (Cap-on, 9CBP) and Hcy-on (9CBR) states copurified with the folate demethylation byproduct”. The “X-ray crystal structure, 2.45 Å” value on tMS^HcyFolCapCob [1] (co-purified, Fol domain) was “tetradomain did yield a folate-bound structure, modelled as tetrahydrofolate (Ligand ID THG)”.
